# Assay results taken from patent US10413529B2, “Methods of inhibiting cataracts and presbyopia” (UNIVERSITY OF MASSACHUSETTS, priority 2013, dated 2019).
# Several values for one entry are separate records, joined by “and”; a condition that tells them apart may be missing. Identical values can stand only once.
# Key:
# [1] = biological target: T1, γD-crystallin (Homo sapiens, UniProt P07320); assay: Dynamic light scattering (DLS) of γD-crystallin, hydrodynamic radius of monomer and aggregate; format: biochemical; conditions: γD modified with the agent
# T1 construct: 6xHis (N); made in house; host or cells: M15pRep E. coli (pQe1 plasmid from King Labs, MIT)
# T1 sequence (P07320 1-174): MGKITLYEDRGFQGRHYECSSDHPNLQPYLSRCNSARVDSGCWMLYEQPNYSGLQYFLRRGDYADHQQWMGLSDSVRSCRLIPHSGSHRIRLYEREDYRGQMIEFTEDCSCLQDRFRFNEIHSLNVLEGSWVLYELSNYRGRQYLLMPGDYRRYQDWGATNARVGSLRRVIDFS
# Description: The scattering wave vector is defined as q=4πn sin (θ/2)/λ, where θ is the scattering angle, and λ=514.5, the wavelength of the argon laser in vacuum, and n is 1.33, the refractive index of water. The temperature of the sample was held at constant temperature of 4 to 37±0.1° C. by a circulating water bath. The correlation function was analyzed using CONTIN analysis [NT] times for the correlation functions at measured angles. […] The delay times (τ) were converted to Γ and graphed versus q^2. The slope of the fitted line is the diffusion coefficient (D). […] All solutions were filtered with 0.22 μm hydrophobic PVDF membranes (Fisher Scientific) into 10 mm diameter borosilicate glass tubes and sealed. Solutions were allowed to equilibrate for thirty minutes prior to measuring light scattering. […] The pH and salt concentration were adjusted via overnight dialysis at 4° C. and their final concentration adjusted to 1.0 g/L. […] The scattering wave vector is defined as q=4πn sin (θ/2)/λ, where θ is the scattering angle, and λ=514.5, the wavelength of the argon laser in vacuum, and n is 1.33, the refractive index of water. The temperature of the sample was held at constant temperature of 4 to 37±0.1° C. by a circulating water bath. The correlation function was analyzed using CONTIN analysis [NT] times for the correlation functions at measured angles. […] The delay times (τ) were converted to Γ and graphed versus q^2. The slope of the fitted line is the diffusion coefficient (D). […] All solutions were filtered with 0.22 μm hydrophobic PVDF membranes (Fisher Scientific) into 10 mm diameter borosilicate glass tubes and sealed. Solutions were allowed to equilibrate for thirty minutes prior to measuring light scattering.
# [2] = system: human corneal epithelial cells (EpiOcular™ tissue); assay: Trans-epithelial transport across epithelium construct; format: in vitro ADME
# Description: The transport of the CAPEG4 across an epithelium construct was studied. The epithelium is the outer layer of the cornea and transport across the epithelium has proven to be challenging.
# Specifically, the CAPEG4 construct in solution (10) was added to the top of an apparatus including a tissue culture plastic insert (11) containing culture medium (12) and an epithelium construct. (FIG. 19).
# [3] = 16 mg/mL CAPEG4, blank insert (no tissue) at 15 min
smiles,measurement,setting,value
NCCOCCOCCOCCOCCC(=O)O [CAPEG4],Rh,"[1]; fast mode (monomer), 37° C.",2.8 nm
same,Rh,"[1]; fast mode (monomer, first Rh column), 22° C.",2.9 nm
same,Rh,"[1]; fast mode (monomer, first Rh column), 22° C., listed as CAPEG",2.8 nm
same,Bottom Average,"[2]; 1 mg/ml CAPEG4, 15 min",13 mcg/well
same,Top Average,"[2]; 1 mg/ml CAPEG4, 15 min",449 mcg/well
same,Top mcg/well,"[2]; 1 mg/ml CAPEG4, 15 min",427 mcg/well and 472 mcg/well
same,Bottom % (stock),"[2]; 1 mg/ml CAPEG4, 15 min, stock 543 mcg/well",2.4%
same,Bottom Average,"[2]; 1 mg/ml CAPEG4, 30 min",31 mcg/well
same,Bottom mcg/well,"[2]; 1 mg/ml CAPEG4, 30 min",26 mcg/well and 37 mcg/well
same,Top Average,"[2]; 1 mg/ml CAPEG4, 30 min",446 mcg/well
same,Top mcg/well,"[2]; 1 mg/ml CAPEG4, 30 min",448 mcg/well and 445 mcg/well
same,Bottom % (stock),"[2]; 1 mg/ml CAPEG4, 30 min, stock 543 mcg/well",5.8%
same,Bottom Average,"[2]; 1 mg/ml CAPEG4, 45 min",8 mcg/well
same,Bottom mcg/well,"[2]; 1 mg/ml CAPEG4, 45 min",9 mcg/well and 8 mcg/well
same,Top Average,"[2]; 1 mg/ml CAPEG4, 45 min",443 mcg/well
same,Top mcg/well,"[2]; 1 mg/ml CAPEG4, 45 min",459 mcg/well and 428 mcg/well
same,Bottom % (stock),"[2]; 1 mg/ml CAPEG4, 45 min, stock 543 mcg/well",1.5%
same,Bottom Average,"[2]; 1 mg/ml CAPEG4, 60 min",9 mcg/well
same,Bottom mcg/well,"[2]; 1 mg/ml CAPEG4, 60 min",8 mcg/well and 11 mcg/well
same,Top Average,"[2]; 1 mg/ml CAPEG4, 60 min",421 mcg/well
same,Top mcg/well,"[2]; 1 mg/ml CAPEG4, 60 min",454 mcg/well and 388 mcg/well
same,Bottom % (stock),"[2]; 1 mg/ml CAPEG4, 60 min, stock 543 mcg/well",1.7%
same,Bottom Average,"[2]; 1 mg/ml CAPEG4, 90 min",31 mcg/well
same,Top Average,"[2]; 1 mg/ml CAPEG4, 90 min",463 mcg/well
same,Top mcg/well,"[2]; 1 mg/ml CAPEG4, 90 min",467 mcg/well and 459 mcg/well
same,Bottom % (stock),"[2]; 1 mg/ml CAPEG4, 90 min, stock 543 mcg/well",5.7%
same,Bottom Average,"[2]; 1 mg/ml CAPEG4, 120 min",25 mcg/well
same,Bottom mcg/well,"[2]; 1 mg/ml CAPEG4, 120 min",21 mcg/well and 30 mcg/well
same,Top Average,"[2]; 1 mg/ml CAPEG4, 120 min",481 mcg/well
same,Top mcg/well,"[2]; 1 mg/ml CAPEG4, 120 min",453 mcg/well and 510 mcg/well
same,Bottom % (stock),"[2]; 1 mg/ml CAPEG4, 120 min, stock 543 mcg/well",4.7%
same,Bottom Average,"[2]; 1 mg/ml CAPEG4, Time 0 harvest",3 mcg/well
same,Bottom mcg/well,"[2]; 1 mg/ml CAPEG4, Time 0 harvest",4 mcg/well and 3 mcg/well
same,Top Average,"[2]; 1 mg/ml CAPEG4, Time 0 harvest",450 mcg/well
same,Top mcg/well,"[2]; 1 mg/ml CAPEG4, Time 0 harvest",446 mcg/well and 453 mcg/well
same,Bottom % (stock),"[2]; 1 mg/ml CAPEG4, Time 0 harvest, stock 543 mcg/well",0.6%
same,Bottom Average,"[2]; 16 mg/mL CAPEG4, 15 min",60 mcg/well
same,Bottom mcg/well,"[2]; 16 mg/mL CAPEG4, 15 min",58 mcg/well and 62 mcg/well
same,Top Average,"[2]; 16 mg/mL CAPEG4, 15 min",6375 mcg/well
same,Top mcg/well,"[2]; 16 mg/mL CAPEG4, 15 min",5842 mcg/well and 6908 mcg/well
same,Bottom % (stock),"[2]; 16 mg/mL CAPEG4, 15 min, stock 8186 mcg/well",0.7%
same,Bottom Average,"[2]; 16 mg/mL CAPEG4, 30 min",99 mcg/well
same,Bottom mcg/well,"[2]; 16 mg/mL CAPEG4, 30 min",93 mcg/well and 105 mcg/well
same,Top Average,"[2]; 16 mg/mL CAPEG4, 30 min",6312 mcg/well
same,Top mcg/well,"[2]; 16 mg/mL CAPEG4, 30 min",6099 mcg/well and 6526 mcg/well
same,Bottom % (stock),"[2]; 16 mg/mL CAPEG4, 30 min, stock 8186 mcg/well",1.2%
same,Bottom Average,"[2]; 16 mg/mL CAPEG4, 45 min",548 mcg/well
same,Bottom mcg/well,"[2]; 16 mg/mL CAPEG4, 45 min",677 mcg/well and 418 mcg/well
same,Top Average,"[2]; 16 mg/mL CAPEG4, 45 min",6335 mcg/well
same,Top mcg/well,"[2]; 16 mg/mL CAPEG4, 45 min",6313 mcg/well and 6356 mcg/well
same,Bottom % (stock),"[2]; 16 mg/mL CAPEG4, 45 min, stock 8186 mcg/well",6.7%
same,Bottom Average,"[2]; 16 mg/mL CAPEG4, 60 min",149 mcg/well
same,Bottom mcg/well,"[2]; 16 mg/mL CAPEG4, 60 min",160 mcg/well and 139 mcg/well
same,Top Average,"[2]; 16 mg/mL CAPEG4, 60 min",6972 mcg/well
same,Top mcg/well,"[2]; 16 mg/mL CAPEG4, 60 min",6450 mcg/well and 7494 mcg/well
same,Bottom % (stock),"[2]; 16 mg/mL CAPEG4, 60 min, stock 8186 mcg/well",1.8%
same,Bottom Average,"[2]; 16 mg/mL CAPEG4, 90 min",525 mcg/well
same,Bottom mcg/well,"[2]; 16 mg/mL CAPEG4, 90 min",525 mcg/well
same,Top Average,"[2]; 16 mg/mL CAPEG4, 90 min",6457 mcg/well
same,Top mcg/well,"[2]; 16 mg/mL CAPEG4, 90 min",6122 mcg/well and 6792 mcg/well
same,Bottom % (stock),"[2]; 16 mg/mL CAPEG4, 90 min, stock 8186 mcg/well",6.4%
same,Bottom Average,[2]; [3],1837 mcg/well
same,Bottom mcg/well,[2]; [3],1837 mcg/well
same,Top Average,[2]; [3],7857 mcg/well
same,Top mcg/well,[2]; [3],7857 mcg/well
same,Bottom % (stock),"[2]; 16 mg/mL CAPEG4, blank insert (no tissue) at 15 min, stock 8186 mcg/well",23%
